How the values were obtained:
Assay type in all cases: in vivo
Helicoverpa armigera = test: Mortality test for Helicoverpa armigera (cabbage leaf dip); conditions: foliar, 144 h, drug solution 100 ppm, 2 instar larva, after 6 days, 25° C., 12 replications
Description: A 10% emulsifiable concentrate of the compound of the present invention (depending on the type of the compound, a 10% wettable powder was subjected to the test) was diluted with water containing a spreader to prepare a drug solution in a concentration of 100 ppm. In this drug solution, a leaf of cabbage was immersed for about 10 seconds and was air-dried and then put into a petri dish. In the petri dish, one 2 instar larva of Helicoverpa armigera per petri dish was released and the petri dish was capped and stored in a thermostatic room of 25° C. The number of killed larvae after 6 days was counted and the mortality was calculated from the same calculation formula as that in Test Example 1. Here, the test was carried out in 12 replications.

Aulacophora femoralis = test: Mortality test for Aulacophora femoralis (cucumber leaf dip); conditions: foliar, 144 h, drug solution 500 ppm, 2 instar larvae, after 6 days, 25° C.
Description: (§1) A 10% emulsifiable concentrate of the compound of the present invention (depending on the type of the compound, a 10% wettable powder was subjected to the test) was diluted with water containing a spreader to prepare a drug solution in a concentration of 500 ppm. In this drug solution, a leaf of cucumber was immersed for about 10 seconds and was air-dried and then put into a petri dish. In the petri dish, five 2 instar larvae of Aulacophora femoralis per petri dish were released and the petri dish was capped and stored in a thermostatic room of 25° C. The number of killed larvae after 6 days was counted and the mortality was calculated from the same calculation formula as that in Test Example 1. Here, the test was carried out in two replications.

Bemisia argentifolii = test: Mortality test for Bemisia argentifolii (tomato leaf spray); conditions: 144 h, drug solution 500 ppm, sprayed 2.5 mL per cup, eggs on tomato leaf, killed larvae after 6 days, 25° C.
Description: (§2) In a styrol cup having an inner diameter of 7 cm, a wet filtration paper was laid, and on the paper, a cut-out leaf of tomato on which Bemisia argentifolii laid eggs (10 eggs/leaf) was laid. A 10% emulsifiable concentrate of the compound of the present invention (depending on the type of the compound, a 10% wettable powder was subjected to the test) was diluted with water containing a spreader to prepare a drug solution in a concentration of 500 ppm. The drug solution was sprayed using a rotary spray tower in an amount of 2.5 mL per styrol cup and the cup was capped and stored in a thermostatic room of 25° C. The number of killed larvae after 6 days was counted and the mortality was calculated from the same calculation formula as that in Test Example 1. Here, the test was carried out in two replications.

Liriomyza trifolii = test: Mortality test for Liriomyza trifolii (kidney bean leaf dip); conditions: foliar, 144 h, drug solution 500 ppm, eggs on kidney bean leaf, killed larvae after 6 days, 25° C.
Description: A 10% emulsifiable concentrate of the compound of the present invention (depending on the type of the compound, a 10% wettable powder was subjected to the test) was diluted with water containing a spreader to prepare a drug solution in a concentration of 500 ppm. In this drug solution, a leaf of kidney bean which was cut out to a diameter of 7 cm, on which Liriomyza trifolii laid eggs (10 eggs/leaf) was immersed for about 10 seconds and was air-dried and then laid on a wet filtration paper laid in a styrol cup having an inner diameter of 7 cm. The styrol cup was capped and stored in a thermostatic room of 25° C. The number of killed larvae after 6 days was counted and the mortality was calculated from the same calculation formula as that in Test Example 1. Here, the test was carried out in two replications.

Planococcus kraunhiae = test: Mortality test for Planococcus kraunhiae (kidney bean leaf spray); conditions: 144 h, drug solution 500 ppm, sprayed 2.5 mL per cup, 1 instar larvae, after 6 days, 25° C.
Description: as §2, with “a” for “a cut-out”, “kidney bean cut out so as to have the same diameter as the inner diameter of the cup” for “tomato on which Bemisia argentifolii laid eggs (10 eggs/leaf)”, “laid, followed by inoculating the leaf with ten 1 instar larvae of Planococcus kraunhiae per leaf.” for “laid.”

Plutella xylostella = test: Mortality test for Plutella xylostella (cabbage leaf dip); conditions: foliar, 144 h, drug solution 100 ppm (mark *), 2 instar larvae, after 6 days, 25° C.
Description: as §1, with “[…]” for “500”, “cabbage” for “cucumber”, “Plutella xylostella” for “Aulacophora femoralis”, “following” for “same”, “formula: Mortality (%)=(number of killed insects/number of released insects)×100.” for “formula as that in Test Example 1.”

Tetranychus urticae = test: Mortality test for Tetranychus urticae (kidney bean leaf spray); conditions: 144 h, drug solution 500 ppm, sprayed 2.5 mL per cup, larvae, after 6 days, 25° C.
Description: as §2, with “a” for “a cut-out”, “kidney bean cut out so as to have the same diameter as the inner diameter of the cup” for “tomato on which Bemisia argentifolii laid eggs (10 eggs/leaf)”, “laid, followed by inoculating the leaf with ten larvae of Tetranychus urticae per leaf.” for “laid.”

[1] = test system: Frankliniella occidentalis; test: Mortality test for Frankliniella occidentalis (kidney bean leaf spray); conditions: 48 h, drug solution 500 ppm, sprayed 2.5 mL per cup, 1 instar larvae, after 2 days, 25° C.
Description: as §2, with “a” for “a cut-out”, “kidney bean cut out so as to have the same diameter as the inner diameter of the cup” for “tomato on which Bemisia argentifolii laid eggs (10 eggs/leaf)”, “laid, followed by inoculating the leaf with ten 1 instar larvae of Frankliniella occidentalis per leaf.” for “laid.”, “2” for “6”

O=C(NCc1ccc(C2=NCC(c3cc(Cl)cc(Cl)c3)(C(F)(F)F)C2)cc1Br)C1CC1 (centres unmarked) [No. 1-001, 2-bromo-N-cyclopropylcarbonyl-4-[4-(3,5-dichlorophenyl)-4-trifluoromethyl-4,5-dihydro-3H-pyrrole-2-yl] benzylamine]
≥ 80%: mortality at 100 ppm (Helicoverpa armigera)

FC(F)(F)C1(c2cc(Cl)cc(Cl)c2)CN=C(c2ccc(-n3cncn3)cc2)C1 (centres unmarked) [No. 3-001, 4-(3,5-dichlorophenyl)-2-[4-(1,2,4-triazole-1-yl)phenyl]-4-trifluoromethyl-4,5-dihydro-3H-pyrrole]
≥ 80%: mortality at 500 ppm (Aulacophora femoralis) | mortality at 500 ppm (Bemisia argentifolii) | mortality at 500 ppm (Liriomyza trifolii) | mortality at 500 ppm (Planococcus kraunhiae) | mortality at 100 ppm (Plutella xylostella) | mortality at 500 ppm (Tetranychus urticae) | mortality at 500 ppm [1]

Reference: patent US8268754B2, “Substituted dihydroazole compound and pest control agent” (Nissan Chemical Industries, Ltd., priority 2007, dated 2012)
